The text below walks through data of US10426806B1, “Anti-obesity effect of Borago officinalis linn. extracts to prevent and treat metabolic disorders” (priority 2018, dated 2019).

What all share (type): in vivo, Wistar rats
Data set [1] has as its system high-fat diet induced-obese rats. Nature of the data set: Therapeutic study: high-fat diet induced-obese rats treated for 12 weeks. To be noted: for Average Food intake / Average body weight / FBG (fasting blood glucose level) / Cholesterol / HDL / LDL / Triglycerides / VLDL: obese rats, 12 weeks of treatment; for Average food intake of rats: TO, TS, TC1 and TC2 treated groups, 12 weeks, HFD; for Cholesterol / HDL / LDL / Triglycerides / VLDL: serum. As for the experimental part: (§1) Thirty male Wistar rats (210-220 g) were obtained from the animal house facility of Dr. Panjwani Center for Molecular Medicine and Drug Research (ICCBS). All animals were kept under standard conditions of temperature and humidity with a 12 h light/dark cycle. This study was approved by the Ethical Committee of International Center for Chemical and Biological Sciences (Protocol #: 2015-0011). After one week of acclimation period, rats were randomly divided into two groups. The control group was fed with normal diet (D12450B, Research Diets, USA), whereas the other groups were fed with high-fat diet (D12451, Research Diets, USA) for a period of 16-week. After 10 weeks, biochemical parameters were evaluated regularly to establish whether the model has developed the symptoms of weight gain and metabolic syndrome.
(§2) Whereas for therapeutic studies the animal groups were further sub-divided into following groups which are as follow: Group 1 (TA), Control; animals in this group received LFD, and distilled water. Group 2 (TC), Pathological control; animals in this group received HFD, and distilled water. Groups 3 (TO), High fat diet induced obese animals in this group received standard drug Orlistat (100 mg/kg/day). Group 4 (TS): High fat diet induced obese animals in this group received standard drug Sibutramine (5 mg/kg/day). Group 5 (TC1): High fat diet induced obese animals in this group received B. officinalis extract (150 mg/kg/day). Group 6 (TC2): High fat diet induced obese animals in this group received B. officinalis extract (300 mg/kg/day).
Body weights were recorded weekly throughout the experiment. The food intake was calculated by using following formula, as described by Ghezzi et al, 2012: […]
(§3) For biochemical analysis after 16 weeks of experimental diet, the blood samples were taken from the tail vein after an overnight fast, whereas after 12 weeks of treatment period, rats were subjected to anesthesia, and blood was drawn by cardiac puncture. Liver and pancreas samples were prepared and stained with hematoxylin and eosin; the liver was excised and fixed in buffered formalin. The sectioned liver tissue segments were stained with hematoxylin-eosin (H-E), and observed under light microscope.
(§4) Blood glucose, serum insulin, total cholesterol, triglycerides, HDL, LDL, very low density lipoproteins […], urea, creatinine, aspartate aminotransferase […], alkaline phosphatase (ALP), serum glutamic pyruvic transaminase (SGPT), and direct and total bilirubin were estimated. Fasting blood glucose levels were measured using glucometer (AccuChek Performa, Australia). Fasting insulin levels were quantified using ultra sensitive rat insulin ELISA kit (Crystal Chem, Downers Grove, USA). Insulin sensitivity was evaluated using Homeostatic Model Assessment (HOMA). Serum total cholesterol, triglycerides, HDL, LDL, VLDL, urea, creatinine, AST, ALP, SGPT, and direct and total bilirubin were analyzed using automatic analyzer (Hitachi, Roche Diagnostics 902, Tokyo, Japan).
In therapeutic study, we investigated the capacity of B. officinalis extracts to reduce the weight of high fat diet induced obese rats, and to improve the key biochemical parameters in metabolic disorders.
Obese rats were treated with Borago officinalis extracts, at two different doses i.e. 150 mg/kg, and 300 mg/kg of body weight for 12 weeks. During these 12 weeks they were also fed HFD.

The next data set has as its system high fat diet rats. In words: Preventive study: high fat diet rats given extract or standard drug for 8 weeks. The conditions noted are these: for Average Food intake / Average body weight / Cholestrol / HDL / LDL / Tri-glyceride / VLDL: 8 weeks preventive study; for FBG (fasting blood glucose level): preventive study; for Cholestrol / HDL / LDL / Tri-glyceride / VLDL: serum. The method, then:
as §1
After a period of 16 weeks, the group of rats on high fat diet (HF) have developed symptoms of metabolic disorders, along with insulin resistance. The HF fed rats were then sub-divided into […] groups of three rats each, i.e. Group 1 (PA), Control; animals in this group received LFD, and distilled water. Group 2, Pathological control (PC); animals in this group received HFD, and distilled water. Group 3 (PO); animals in this group received HFD, and standard drug Orlistat (100 mg/kg/day). Group 4 (PS); animals in this group received HFD, and standard drug Sibutramine (5 mg/kg/day). Group 5 (PC1); animals in this group received HFD, and B. officinalis extract (150 mg/kg/day). Group 6 (PC2); animals in this group received HFD, and B. officinalis extract (300 mg/kg/day).
Body weights were recorded weekly throughout the experiment. The food intake was calculated by using following formula, as described by Ghezzi et al, 2012:
[…] Liver and pancreas samples were prepared and stained with hematoxylin and eosin; the liver was excised and fixed in buffered formalin. The sectioned liver tissue segments were stained with hematoxylin-eosin (H-E), and observed under light microscope.
as §4

For data set [2], the system named is high-fat diet induced-obese rats. Nature of the data set: Evaluation of renal and liver toxicity after 12 weeks of treatment (therapeutic study). To be noted: 5 mg/kg (TS). As for the experimental part:
as §2, §3, §4
Evaluation of Renal and Liver Toxicity of Borago officinalis Extract

For the compound `CCCCCCCCCCC[C@@H](C[C@@H]1OC(=O)[C@H]1CCCCCC)OC(=O)[C@H](CC(C)C)NC=O` [Orlistat], in data set [1] (100 mg/kg (TO)), the “Average Food intake” value is listed as 3.18 g/100 g, the “Average body weight” value worked out at 356 ± 4.63 g, the “FBG (fasting blood glucose level)” value stood at 84 ± 0.17 mg/dL and the Cholesterol came out at 68 ± 3.66 mg/dL. In data set [1] (100 mg/kg (TO)), the HDL worked out at 52 ± 3.04 mg/dL, the LDL is reported as 15 ± 0.41 mg/dL, the Triglycerides turned out to be 52 ± 0.16 mg/dL and the VLDL came out at 9 ± 0.87 mg/dL. In addition, the “Average food intake of rats” value in data set [1] was “decrease”. In addition, in the data set with high fat diet rats (100 mg/kg (PO)), the “Average Food intake” value came to 4.23 g/100 g, the Average body weight came out at 256 ± 0.10 g, the “FBG (fasting blood glucose level)” value is 79 ± 1.04 mg/dL and the Cholestrol was 68 ± 3.66 mg/dL. Further, in the data set on high fat diet rats (100 mg/kg (PO)), the HDL is 52 ± 3.04 mg/dL, the LDL is given as 15 ± 0.41 mg/dL, the Tri-glyceride came out at 52 ± 0.16 mg/dL and the VLDL is 9 ± 0.87 mg/dL.

`CC(C)CC(N(C)C)C1(c2ccc(Cl)cc2)CCC1` (stereo not shown) [Sibutramine]: in data set [2], the ALP was 116 ± 0.14 U/L, the ALT is given as 85 ± 0.009 U/L, the Creatinine was 0.49 ± 0.02 mg/dL and the SGPT is given as 38 ± 3.34 U/L. Moreover, in data set [2], the “Total Bilirubin” value is 0.15 ± 0.01 mg/dL and the Urea is 31 ± 2.42 mg/dL. For the same compound, in data set [1] (5 mg/kg (TS)), the “Average Food intake” value came out at 4.20 g/100 g, the “Average body weight” value is reported as 361 ± 6.43 g, the “FBG (fasting blood glucose level)” value came out at 80 ± 0.12 mg/dL and the Cholesterol is recorded as 65 ± 0.13 mg/dL. In data set [1] (5 mg/kg (TS)), the HDL is 59 ± 0.16 mg/dL, the LDL came to 14 ± 0.68 mg/dL, the Triglycerides is 51 ± 0.19 mg/dL and the VLDL is reported as 9 ± 0.8 mg/dL. In data set [1], the “Average food intake of rats” value was “decrease”. In addition, in the data set with high fat diet rats (5 mg/kg (PS)), the “Average Food intake” value is reported as 5.34 g/100 g, the Average body weight came out at 251 ± 0.11 g, the “FBG (fasting blood glucose level)” value stood at 76 ± 2.12 mg/dL and the Cholestrol is 65 ± 0.13 mg/dL. In the data set on high fat diet rats (5 mg/kg (PS)), the HDL came to 59 ± 0.16 mg/dL, the LDL was 14 ± 0.68 mg/dL, the Tri-glyceride was 51 ± 0.19 mg/dL and the VLDL was 9 ± 0.8 mg/dL.
